Values of other authors in patent US4324553A, “Hair dyeing compositions containing at least one 2,4-diamino-alkylbenzene as coupler” (L'Oreal, priority 1979, dated 1982).

System: Salmonella typhimurium (TA 1538 and TA 98)
Settings: Salmonella typhimurium TA 1538 and TA 98, with S9 mix induced by Aroclor 1254; prior-art statement

Q: For `CCc1ccc(N)cc1N` [2,4-Diamino-ethylbenzene], which “mutagenic activity as evaluated in the Ames test” value is on record?
A: The value was “high mutagenic activity”.

Q: With `Cc1ccc(N)cc1N` [2,4-diaminotoluene] as the compound, how does the “mutagenic activity as evaluated in the Ames test” value read?
A: Its value is “very high mutagenic activity”.
